Source: the supplement of paper PMC10307832

Assays:
Assay in all cases: relative viability (nuclei count vs DMSO), 5 days (fraction); higher = more cells survive
Carboplatin + Olaparib = compound: C1CC(C1)(C(=O)O)C(=O)O.[NH2-].[NH2-].[Pt+2] [Carboplatin] + O=C(c1cc(Cc2n[nH]c(=O)c3ccccc23)ccc1F)N1CCN(C(=O)C2CC2)CC1 [Olaparib] (partner 8 µM)
Outline: (§1)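 Lung cancer cell lines were pin-tool dosed in 1536-well plates on the day after seeding, with either a lone drug or a fixed anchor-drug dose plus five library-drug doses (not always all listed) in √10 steps. Nuclei were counted on 4× images after 5 days. Relative viability is the ratio of treated-well to vehicle-well nuclei counts, with each value a median of duplicate plates.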

GSK126 + Pictilisib = compound: CC[C@H](C)N1C=C(C2=C(C=C(C=C21)C3=CN=C(C=C3)N4CCNCC4)C(=O)NCC5=C(C=C(NC5=O)C)C)C [GSK126] + CS(=O)(=O)N1CCN(Cc2cc3nc(-c4cccc5[nH]ncc45)nc(N4CCOCC4)c3s2)CC1 [Pictilisib] (partner 1 µM)
Outline: as §1

GSK126 + Pemetrexed = compound: CC[C@H](C)N1C=C(C2=C(C=C(C=C21)C3=CN=C(C=C3)N4CCNCC4)C(=O)NCC5=C(C=C(NC5=O)C)C)C [GSK126] + Nc1nc2[nH]cc(CCc3ccc(C(=O)N[C@@H](CCC(=O)O)C(=O)O)cc3)c2c(=O)[nH]1 [Pemetrexed] (partner 0.2 µM)
Outline: as §1

MLN4924 + Trametinib = compound: NS(=O)(=O)OC[C@@H]1C[C@@H](n2ccc3c(N[C@H]4CCc5ccccc54)ncnc32)C[C@@H]1O [MLN4924] + CC(=O)Nc1cccc(-n2c(=O)n(C3CC3)c(=O)c3c(Nc4ccc(I)cc4F)n(C)c(=O)c(C)c32)c1 [Trametinib] (partner 0.02 µM)
Outline: as §1

| Cell Line | relative viability (Carboplatin + Olaparib; first compound 0.08 µM) | relative viability (Carboplatin + Olaparib; first compound 0.253 µM) | relative viability (Carboplatin + Olaparib; first compound 0.8 µM) | relative viability (Carboplatin + Olaparib; first compound 2.53 µM) | relative viability (Carboplatin + Olaparib; first compound 8 µM) | relative viability (GSK126 + Pictilisib; first compound 0.08 µM) | relative viability (GSK126 + Pictilisib; first compound 0.253 µM) | relative viability (GSK126 + Pictilisib; first compound 0.8 µM) | relative viability (GSK126 + Pictilisib; first compound 2.53 µM) | relative viability (GSK126 + Pictilisib; first compound 8 µM) | relative viability (GSK126 + Pemetrexed; first compound 0.08 µM) | relative viability (GSK126 + Pemetrexed; first compound 0.253 µM) | relative viability (GSK126 + Pemetrexed; first compound 0.8 µM) | relative viability (GSK126 + Pemetrexed; first compound 2.53 µM) | relative viability (GSK126 + Pemetrexed; first compound 8 µM) | relative viability (MLN4924 + Trametinib; first compound 0.04 µM) | relative viability (MLN4924 + Trametinib; first compound 0.1265 µM) | relative viability (MLN4924 + Trametinib; first compound 0.4 µM) | relative viability (MLN4924 + Trametinib; first compound 1.265 µM) | relative viability (MLN4924 + Trametinib; first compound 4 µM) |
| --- | --- | --- | --- | --- | --- | --- | --- | --- | --- | --- | --- | --- | --- | --- | --- | --- | --- | --- | --- | --- |
| CAL-12T | 0.727 | 0.783 | 0.673 | 0.741 | 0.648 | 0.466 | 0.499 | 0.357 | 0.596 | 0.343 | 1.31 | 1.37 | 1.09 | 1.13 | 1.43 | 0.373 | 0.371 | 0.269 | 0.279 | 0.158 |
| SK-MES-1 | 0.843 | 0.748 | 0.646 | 0.621 | 0.537 | 0.386 | 0.322 | 0.329 | 0.357 | 0.392 | 1.01 | 0.996 | 0.979 | 0.941 | 1.09 | 0.631 | 0.676 | 0.727 | 0.295 | 0.255 |
| NCI-H460 | 0.444 | 0.47 | 0.253 | 0.188 | 0.187 | 0.371 | 0.391 | 0.335 | 0.361 | 0.338 | 0.0714 | 0.0516 | 0.0631 | 0.0635 | 0.0781 | 0.3 | 0.205 | 0.332 | 0.0885 | 0.0366 |
| LK-2 | 0.743 | 0.702 | 0.726 | 0.65 | 0.844 | 0.772 | 0.54 | 0.637 | 0.658 | 0.486 | 0.306 | 0.297 | 0.293 | 0.325 | 0.223 | 0.699 | 0.677 | 0.618 | 0.245 | 0.212 |
| NCI-H2085 | 0.817 | 0.844 | 0.761 | 0.786 | 0.687 | 0.484 | 0.358 | 0.369 | 0.485 | 0.49 | 1.03 | 0.874 | 0.894 | 0.854 | 0.978 | 0.486 | 0.509 | 0.575 | 0.559 | 0.293 |
| NCI-H650 | 0.419 | 0.388 | 0.37 | 0.365 | 0.285 | 1.02 | 0.781 | 0.884 | 0.884 | 0.801 | 1.09 | 0.825 | 0.935 | 0.903 | 1.24 | 0.894 | 0.76 | 0.574 | 0.201 | 0.176 |
| NCI-H2170 | 0.621 | 0.668 | 0.555 | 0.567 | 0.37 | 0.333 | 0.281 | 0.35 | 0.322 | 0.346 | 0.249 | 0.245 | 0.271 | 0.256 | 0.264 | 0.879 | 0.537 | 0.467 | 0.155 | 0.126 |
| LC-2-ad | 0.699 | 0.7 | 0.666 | 0.675 | 0.522 | 0.506 | 0.687 | 0.647 | 0.522 | 0.567 | 0.257 | 0.265 | 0.278 | 0.281 | 0.253 | 0.95 | 0.827 | 0.701 | 0.541 | 0.305 |
| NCI-H322M | 0.761 | 0.818 | 0.779 | 0.686 | 0.65 | 0.431 | 0.517 | 0.507 | 0.509 | 0.454 | 0.543 | 0.621 | 0.615 | 0.648 | 0.641 | 0.662 | 0.735 | 1.03 | 0.452 | 0.389 |
| LCLC-97TM1 | 0.334 | 0.524 | 0.353 | 0.506 | 0.332 | 0.22 | – | 0.229 | 0.285 | 0.18 | 0.19 | 0.193 | 0.171 | 0.179 | 0.194 | 0.208 | 0.214 | 0.157 | 0.0691 | 0.0607 |
| NCI-H596 | 0.6 | 0.617 | 0.623 | 0.601 | 0.585 | 0.386 | 0.404 | 0.378 | 0.382 | 0.37 | 0.496 | 0.464 | 0.441 | 0.45 | 0.472 | 0.799 | 0.833 | 0.727 | 0.649 | 0.443 |
| NCI-H1792 | 0.72 | 0.548 | 0.412 | 0.289 | 0.265 | 0.289 | 0.272 | 0.35 | 0.3 | 0.246 | 0.89 | 0.727 | 0.806 | 0.698 | 0.818 | 0.376 | 0.441 | 0.566 | 0.433 | 0.238 |
| NCI-H1944 | 0.388 | 0.469 | 0.369 | 0.367 | 0.366 | 0.356 | 0.349 | 0.367 | 0.36 | 0.391 | 0.719 | 0.641 | 0.607 | 0.654 | 0.567 | 0.388 | 0.353 | 0.329 | 0.193 | 0.186 |
| NCI-H1755 | 0.861 | 0.895 | 0.88 | 0.854 | 0.784 | 0.512 | 0.451 | 0.459 | 0.46 | 0.384 | 0.401 | 0.483 | 0.402 | 0.403 | 0.36 | 0.813 | 0.749 | 0.801 | 0.348 | 0.215 |
| H3255 | 0.567 | 0.643 | 0.522 | 0.531 | 0.434 | 0.472 | 0.512 | 0.492 | 0.466 | 0.441 | 0.596 | 0.548 | 0.568 | 0.898 | 0.58 | 0.591 | 0.53 | 0.409 | 0.304 | 0.306 |
| NCI-H23 | 0.4 | 0.31 | 0.281 | 0.28 | 0.24 | 0.535 | 0.568 | 0.418 | 0.466 | 0.512 | 0.773 | 0.735 | 0.687 | 0.706 | 0.631 | 0.403 | 0.391 | 0.326 | 0.201 | 0.167 |
